According to ChEMBL document CHEMBL3045041, “Synthesis of novel aryl(4-substituted pyridin-3-yl)methyl carbamates and their herbicidal activity” (J Pestic Sci, 2012):

Key:
[1] = test system: Oryza sativa; experiment: Phytotoxicity against Oryza sativa cv. Kinuhikari (rice) planted at 3 cm depth measured after 20 to 25 days; type: organism-based; settings: in vivo
[2] = test system: Schoenoplectiella juncoides; experiment: Herbicidal activity against Schoenoplectiella juncoides under greenhouse condition compound treated at 0.5 leaf stage measured after 14 to 20 days; type: functional
[3] = test system: Echinochloa oryzicola; experiment: Herbicidal activity against Echinochloa oryzicola under greenhouse condition compound treated at emergence stage measured after 14 to 20 days; type: functional
[4] = test system: Echinochloa oryzicola; experiment: Herbicidal activity against Echinochloa oryzicola under greenhouse condition compound treated at 2.5 leaf stage measured after 14 to 20 days; type: functional

In the case of CN(C)C(=O)OC(c1cnccc1C(F)(F)F)c1ccnc2ccccc12 (centres undefined), the ED20 [1] was 2000 gAi/ha, the ED80 [2] was 500 gAi/ha and the ED80 [3] was 125 gAi/ha.
With CN(C)C(=O)OC(c1cnccc1C(F)(F)F)c1ccc2c3c(cccc13)CC2 (centres undefined) the ED20 [1] was greater than 2000 gAi/ha, the ED80 [2] was greater than 1000 gAi/ha and the ED80 [4] was greater than 500 gAi/ha. The ED80 [3] was 500 gAi/ha.
In the case of CN(C)C(=O)OC(c1cnccc1C(F)(F)F)c1c(Cl)ccc2c1OCO2 (centres undefined), the ED20 [1] was greater than 2000 gAi/ha, the ED80 [2] was 500 gAi/ha and the ED80 [4] was 500 gAi/ha. The ED80 [3] was 63 gAi/ha.
Compound CN(C)C(=O)OC(c1cnccc1C(F)(F)F)c1cccc2c1OCO2 (centres undefined) has an ED20 [1] of 500 gAi/ha, an ED80 [2] of 250 gAi/ha and an ED80 [3] of 63 gAi/ha.
